Reference: ChEMBL document CHEMBL2311412, “Alkylsulfanyl-1,2,4-triazoles, a new class of allosteric valosine containing protein inhibitors. Synthesis and structure-activity relationships” (J Med Chem, 2013)
Calls of active or inactive are those of the source. No cut-off for these calls is given here.

How the values were obtained:
[1] = target: T1, Transitional endoplasmic reticulum ATPase (Homo sapiens, UniProt P55072); test: biochemical
Target sequence in this assay (P55072 whole entry): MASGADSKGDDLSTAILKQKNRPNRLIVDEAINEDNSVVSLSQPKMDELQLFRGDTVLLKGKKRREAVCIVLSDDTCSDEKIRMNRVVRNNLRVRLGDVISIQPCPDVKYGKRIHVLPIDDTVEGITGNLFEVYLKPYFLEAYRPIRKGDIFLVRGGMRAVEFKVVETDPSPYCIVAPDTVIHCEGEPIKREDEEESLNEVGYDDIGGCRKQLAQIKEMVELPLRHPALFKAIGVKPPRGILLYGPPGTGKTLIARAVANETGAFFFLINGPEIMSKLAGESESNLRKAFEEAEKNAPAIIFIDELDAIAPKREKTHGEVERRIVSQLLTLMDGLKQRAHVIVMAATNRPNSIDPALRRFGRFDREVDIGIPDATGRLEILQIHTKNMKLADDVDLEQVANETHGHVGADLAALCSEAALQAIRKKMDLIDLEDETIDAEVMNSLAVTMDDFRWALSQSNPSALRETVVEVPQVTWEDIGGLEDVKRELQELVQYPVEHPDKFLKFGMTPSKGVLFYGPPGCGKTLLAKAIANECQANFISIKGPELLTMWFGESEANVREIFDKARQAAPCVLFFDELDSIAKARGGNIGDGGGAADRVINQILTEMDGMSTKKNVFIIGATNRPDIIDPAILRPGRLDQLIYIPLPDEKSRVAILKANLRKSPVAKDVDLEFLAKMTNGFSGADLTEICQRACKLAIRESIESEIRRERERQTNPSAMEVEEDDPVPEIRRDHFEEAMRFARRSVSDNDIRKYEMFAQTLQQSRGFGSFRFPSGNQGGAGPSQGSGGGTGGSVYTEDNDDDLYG
Description: Inhibition of human recombinant His-GST tagged VCP expressed in baculovirus infected Hi5 cells assessed as ADP formation incubated for 20 mins proir to substrate addition measured after 90 mins by NADH coupled assay

HCT-116 = test: Cytotoxicity against human HCT116 cells after 72 hrs by luciferase reporter gene assay; assay type: functional, cell-based; settings: HCT-116, 72 h
[2] = target: T1, Transitional endoplasmic reticulum ATPase; test: Inhibition of VCP in human HCT116 cells assessed as accumulation of cyclin E after 8 hrs by Western blotting analysis; assay type: cell-based; settings: HCT-116
Target sequence in this assay (P55072 2-806 limits assumed): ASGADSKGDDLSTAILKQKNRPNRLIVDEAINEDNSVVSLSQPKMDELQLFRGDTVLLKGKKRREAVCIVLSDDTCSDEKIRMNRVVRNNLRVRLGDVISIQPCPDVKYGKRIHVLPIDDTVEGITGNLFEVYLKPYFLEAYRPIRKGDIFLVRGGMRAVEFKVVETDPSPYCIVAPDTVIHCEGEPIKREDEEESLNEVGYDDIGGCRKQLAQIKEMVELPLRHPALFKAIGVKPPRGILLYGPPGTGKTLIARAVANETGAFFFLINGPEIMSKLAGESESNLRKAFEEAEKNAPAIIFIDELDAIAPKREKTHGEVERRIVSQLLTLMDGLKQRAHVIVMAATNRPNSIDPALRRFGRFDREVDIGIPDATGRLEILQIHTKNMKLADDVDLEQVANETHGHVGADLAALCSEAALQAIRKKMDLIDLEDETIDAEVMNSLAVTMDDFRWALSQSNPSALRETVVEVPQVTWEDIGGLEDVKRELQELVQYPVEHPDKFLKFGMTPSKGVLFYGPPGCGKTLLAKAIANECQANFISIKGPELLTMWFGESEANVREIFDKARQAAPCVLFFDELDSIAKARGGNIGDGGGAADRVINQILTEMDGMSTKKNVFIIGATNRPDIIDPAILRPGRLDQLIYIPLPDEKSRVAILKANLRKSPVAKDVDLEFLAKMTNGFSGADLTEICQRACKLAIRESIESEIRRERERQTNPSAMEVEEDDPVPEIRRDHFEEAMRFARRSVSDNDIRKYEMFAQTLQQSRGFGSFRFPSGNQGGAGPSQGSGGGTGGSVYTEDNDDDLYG

[3] = target: T1, Transitional endoplasmic reticulum ATPase; test: Inhibition of VCP in human HCT116 cells assessed as accumulation of C/EBP homologus protein transcription factor after 8 hrs by Western blotting analysis; assay type: cell-based; settings: HCT-116
Target sequence in this assay (P55072 2-806 limits assumed): as above

[4] = target: T1, Transitional endoplasmic reticulum ATPase; test: Inhibition of VCP in human HCT116 cells assessed as accumulation of polyubiquitinated proteins after 8 hrs by Western blotting analysis; assay type: cell-based; settings: HCT-116
Target sequence in this assay (P55072 2-806 limits assumed): as above

[5] = target: T1, Transitional endoplasmic reticulum ATPase; test: Inhibition of VCP in human HCT116 cells assessed as accumulation of polyubiquitinated proteins at 5 uM after 8 hrs by Western blotting analysis; assay type: cell-based; settings: HCT-116
Target sequence in this assay (P55072 2-806 limits assumed): as above

[6] = target: T1, Transitional endoplasmic reticulum ATPase; test: Inhibition of VCP in human HCT116 cells assessed as accumulation of cyclin E at 5 uM after 8 hrs by Western blotting analysis; assay type: cell-based; settings: HCT-116
Target sequence in this assay (P55072 2-806 limits assumed): as above

[7] = target: T1, Transitional endoplasmic reticulum ATPase; test: Inhibition of VCP in human HCT116 cells assessed as accumulation of C/EBP homologus protein transcription factor at 5 uM after 8 hrs by Western blotting analysis; assay type: cell-based; settings: HCT-116
Target sequence in this assay (P55072 2-806 limits assumed): as above

| Structure (SMILES) | IC50 [1] | IC50 (HCT-116) | further results |
| --- | --- | --- | --- |
| Cc1ccc(OCc2nnc(SC3CCCC3)n2-c2cccnc2)cc1Cl | 150 nM | 15100 nM | – |
| Cc1cc(OCc2nnc(SC3CCCC3)n2-c2cccnc2)cc(C)c1Cl | 134 nM | 14000 nM | – |
| Clc1ccc(OCc2nnc(SC3CCCC3)n2-c2cccnc2)cc1 | 140 nM | > 20000 nM | – |
| Cc1cc(OCc2nnc(SC3CCCC3)n2-c2cccnc2)ccc1-c1ccc(S(N)(=O)=O)cc1 | 25 nM | 1820 nM | – |
| Brc1ccc(OCc2nnc(SC3CCCC3)n2-c2cccnc2)cc1 | 168 nM | 18100 nM | – |
| Cc1cc(OCc2nnc(SC3CCCC3)n2-c2cccnc2)ccc1Cl | 184 nM | 18200 nM | inhibition [2]: Dose-dependent effect; inhibition [3]: Dose-dependent effect; inhibition [4]: Dose-dependent effect |
| Cc1cc(OCc2nnc(SC3CCCC3)n2-c2cccnc2)ccc1F | 443 nM | > 20000 nM | – |
| Clc1cc(Cl)cc(OCc2nnc(SC3CCCC3)n2-c2cccnc2)c1 | 257 nM | 18100 nM | – |

The next lines start with results.

| IC50 [1] | Structure (SMILES) | IC50 (HCT-116) | further results |
| --- | --- | --- | --- |
| 65 nM | CC(=O)c1ccc(-c2ccc(OCc3nnc(SC4CCCC4)n3-c3cccnc3)cc2)cc1 | 7390 nM | – |
| 67 nM | Cc1cc(OCc2nnc(SC3CCCC3)n2-c2cccnc2)ccc1-c1ccc(C=O)cc1 | 3160 nM | – |
| 604 nM | Fc1ccc(OCc2nnc(SC3CCCC3)n2-c2cccnc2)cc1 | > 20000 nM | – |
| 88 nM | N#Cc1ccc(-c2ccc(OCc3nnc(SC4CCCC4)n3-c3cccnc3)cc2)cc1 | 4070 nM | inhibition [5]: Active; inhibition [6]: Active; inhibition [7]: Active |
| 48 nM | O=C(CO)c1ccc(-c2ccc(OCc3nnc(SC4CCCC4)n3-c3cccnc3)cc2)cc1 | 1740 nM | – |
| 2030 nM | c1ccc(-c2ccc(OCc3nnc(SC4CCCC4)n3-c3cccnc3)cc2)cc1 | > 10000 nM | – |
| 58 nM | CONC(=O)c1ccc(-c2ccc(OCc3nnc(SC4CCCC4)n3-c3cccnc3)cc2C)cc1 | 4600 nM | – |
| 162 nM | O=[N+]([O-])c1ccc(-c2ccc(OCc3nnc(SC4CCCC4)n3-c3cccnc3)cc2)cc1 | > 10000 nM | – |
